Experimental data taken from PMC7038240 (Antimicrobial Agents and Chemotherapy, 2020).
Read-outs that look alike come from different tables or passages of the source.

Columns and labels:
Type in all cases: cell-based
[1] = system: K. pneumoniae; experiment: microbe, parasite or virus in culture; settings: Klebsiella pneumoniae, read-out: MIC
Excerpt: (§1) The antibacterial activity of cefepime-taniborbactam was compared to that of ceftazidime-avibactam, ceftolozane-tazobactam, and cefepime-tazobactam against a diverse panel of Enterobacterales and P. aeruginosa clinical isolates with defined β-lactamase subtypes (see Table S1 in the supplemental material). IMP-producing strains were excluded, as none of the BLI-protected cephalosporins inhibited IMP sufficiently to provide a clinically relevant rescue of the partner β-lactam, a characteristic also shared by approved BLI-protected carbapenems (meropenem-vaborbactam and imipenem-relebactam). […] The antibacterial activity of the cephalosporins alone was included to ascertain the level of potentiation by the partnered BLI. BLIs were tested at a fixed concentration of 4 μg/ml in all combinations except cefepime-tazobactam, where tazobactam was fixed at a concentration of 8 μg/ml ([38]). The collection comprised 143 clinical isolates collected from 2005 and 2018.
(§2) The in vitro antibacterial activity of the β-lactams alone or in combination with the BLIs was determined in cation-adjusted Mueller-Hinton broth (CAMHB) microdilution assays according to CLSI recommendations ([51]). […]. The inocula for the broth microdilution assays were prepared by the broth culture method ([51]). […]

[2] = system: P. aeruginosa; experiment: microbe, parasite or virus in culture
Excerpt: as §1, §2

[3] = system: S. marcescens; experiment: microbe, parasite or virus in culture; settings: Serratia marcescens
Excerpt: as §1, §2

[4] = system: S. paratyphi; experiment: microbe, parasite or virus in culture; settings: Salmonella enterica, strain 527, AmpC/TEM-1
Excerpt: as §1, §2

[5] = system: S. typhi; experiment: microbe, parasite or virus in culture; settings: Salmonella enterica, strain 26A, AmpC/TEM-1
Excerpt: as §1, §2

[6] = system: M. morgannii; experiment: organism not typed; settings: strain 769909; OXA-48
Excerpt: as §1, §2

**Q.** Which MIC ([1]; strain CDC-0145, NDM) does the source give for CC(C)(O/N=C(\C(=O)N[C@@H]1C(=O)N2C(C(=O)[O-])=C(C[n+]3ccccc3)CS[C@H]12)c1csc(N)n1)C(=O)O [CAZ] here?
**A.** ≥ 256 µg/mL

**Q.** What about the MIC ([1]; strain CDC-0148, NDM) of the same compound?
**A.** ≥ 256 µg/mL

**Q.** What about the MIC ([1]; strain CDC-0152, NDM) of the same compound?
**A.** ≥ 256 µg/mL

**Q.** What about the MIC ([1]; strain DOV, OXA-48) of the same compound?
**A.** 64 µg/mL

**Q.** What about the MIC ([1]; strain ESBL8 #1, TEM-1/SHV-12) of the same compound?
**A.** ≥ 256 µg/mL

**Q.** What about the MIC ([1]; strain ESBL 10, SHV-12/TEM-1) of the same compound?
**A.** 128 µg/mL

**Q.** And the MIC ([1]; strain KIRK, OXA-162)?
**A.** 128 µg/mL

**Q.** What about the MIC ([1]; strain SI-C05, OXA-48) of the same compound?
**A.** 64 µg/mL

**Q.** And the MIC ([1]; strain SI-F100, SHV-5/TEM-1/CMY-2)?
**A.** 32 µg/mL

**Q.** What about the MIC [2] of the same compound?
**A.** 64 µg/mL

**Q.** What about the MIC ([2]; Pseudomonas aeruginosa, ATCC27853, strain ATCC 27853, W.T., read-out: MIC) of the same compound?
**A.** 2 µg/mL

**Q.** What about the MIC ([2]; Pseudomonas aeruginosa, strain 10.257, PDC-50, read-out: MIC) of the same compound?
**A.** ≥ 256 µg/mL

**Q.** What about the MIC ([2]; Pseudomonas aeruginosa, strain 11.516, PDC-79, read-out: MIC) of the same compound?
**A.** 128 µg/mL

**Q.** And the MIC ([2]; Pseudomonas aeruginosa, strain 11.698, PDC-87, read-out: MIC)?
**A.** ≥ 256 µg/mL

**Q.** What about the MIC ([2]; Pseudomonas aeruginosa, strain 11.813, PDC-91, read-out: MIC) of the same compound?
**A.** ≥ 256 µg/mL

**Q.** What about the MIC ([2]; Pseudomonas aeruginosa, strain 13.1716, PDC-74, read-out: MIC) of the same compound?
**A.** ≥ 256 µg/mL

**Q.** And the MIC ([2]; Pseudomonas aeruginosa, strain 13.1717, PDC-74, read-out: MIC)?
**A.** ≥ 256 µg/mL

**Q.** What about the MIC ([2]; Pseudomonas aeruginosa, strain 13.1737, PDC-80, read-out: MIC) of the same compound?
**A.** 128 µg/mL

**Q.** And the MIC ([2]; Pseudomonas aeruginosa, strain 13.1755, PDC-86, read-out: MIC)?
**A.** ≥ 256 µg/mL

**Q.** What about the MIC ([2]; Pseudomonas aeruginosa, strain 13.1760, PDC-77, read-out: MIC) of the same compound?
**A.** ≥ 256 µg/mL

**Q.** What about the MIC ([2]; Pseudomonas aeruginosa, strain 13.1775, PDC-87, read-out: MIC) of the same compound?
**A.** ≥ 256 µg/mL

**Q.** What about the MIC ([2]; Pseudomonas aeruginosa, strain 247.3D, VIM-2, read-out: MIC) of the same compound?
**A.** ≥ 256 µg/mL

**Q.** What about the MIC ([2]; Pseudomonas aeruginosa, strain 1129, PDC, read-out: MIC) of the same compound?
**A.** 4 µg/mL

**Q.** And the MIC ([2]; Pseudomonas aeruginosa, strain 3615, PDC/TEM-1, read-out: MIC)?
**A.** 32 µg/mL

**Q.** What about the MIC ([2]; Pseudomonas aeruginosa, strain 5671, VIM-1, read-out: MIC) of the same compound?
**A.** 128 µg/mL

**Q.** What about the MIC ([2]; Pseudomonas aeruginosa, strain 8273, PDC/TEM-1, read-out: MIC) of the same compound?
**A.** 16 µg/mL

**Q.** And the MIC ([2]; Pseudomonas aeruginosa, strain 164951, W.T., read-out: MIC)?
**A.** 2 µg/mL

**Q.** And the MIC ([2]; Pseudomonas aeruginosa, strain 377860, W.T., read-out: MIC)?
**A.** 4 µg/mL

**Q.** What about the MIC ([2]; Pseudomonas aeruginosa, strain 384743, PDC/TEM-1, read-out: MIC) of the same compound?
**A.** 16 µg/mL

**Q.** And the MIC ([2]; Pseudomonas aeruginosa, strain 1071703, GES-6, read-out: MIC)?
**A.** 64 µg/mL

**Q.** And the MIC ([2]; Pseudomonas aeruginosa, strain 1113755, GES-5, read-out: MIC)?
**A.** ≥ 256 µg/mL

**Q.** And the MIC ([2]; Pseudomonas aeruginosa, strain 1138223, GES-19, read-out: MIC)?
**A.** ≥ 256 µg/mL

**Q.** And the MIC ([2]; Pseudomonas aeruginosa, strain 1138337, GES-19, read-out: MIC)?
**A.** ≥ 256 µg/mL

**Q.** And the MIC ([2]; Pseudomonas aeruginosa, strain 1258509, GES-6, read-out: MIC)?
**A.** 64 µg/mL

**Q.** What about the MIC ([2]; Pseudomonas aeruginosa, strain 1275655, GES-20, read-out: MIC) of the same compound?
**A.** ≥ 256 µg/mL

**Q.** What about the MIC ([2]; Pseudomonas aeruginosa, strain 1300089, GES-19, read-out: MIC) of the same compound?
**A.** ≥ 256 µg/mL

**Q.** And the MIC ([2]; Pseudomonas aeruginosa, strain PA2, W.T., read-out: MIC)?
**A.** 4 µg/mL

**Q.** What about the MIC ([2]; Pseudomonas aeruginosa, strain PAA1-9G1, GES-5, read-out: MIC) of the same compound?
**A.** ≥ 256 µg/mL

**Q.** And the MIC ([2]; Pseudomonas aeruginosa, strain PAA1-9G2, GES-5, read-out: MIC)?
**A.** ≥ 256 µg/mL

**Q.** What about the MIC ([2]; Pseudomonas aeruginosa, strain PS-12, VIM-2, read-out: MIC) of the same compound?
**A.** 64 µg/mL

**Q.** And the MIC ([2]; Pseudomonas aeruginosa, strain PS-32, VIM-2, read-out: MIC)?
**A.** 16 µg/mL

**Q.** What about the MIC ([2]; Pseudomonas aeruginosa, strain Paeβ-04, 100-fold ↑ PDC-2/30% OprD/5.6x ↑ABM, read-out: MIC) of the same compound?
**A.** 32 µg/mL

**Q.** What about the MIC ([2]; Pseudomonas aeruginosa, strain Paeβ-10, 67-fold ↑ PDC-2/0.1% OprD/5.7x↑ABM, read-out: MIC) of the same compound?
**A.** 32 µg/mL

**Q.** What about the MIC ([2]; Pseudomonas aeruginosa, strain Paeβ-15, 310-fold ↑ PDC-2/10% OprD/4.4x↑XYM, read-out: MIC) of the same compound?
**A.** 64 µg/mL

**Q.** And the MIC ([2]; Pseudomonas aeruginosa, strain Paeβ-17, 62-fold ↑PDC-3/30% OprD/10.2x and 9.9x ↑XYM and CDJ, read-out: MIC)?
**A.** 64 µg/mL

**Q.** What about the MIC ([2]; Pseudomonas aeruginosa, strain Paeβ-18, 600-fold ↑ PDC-3/<0.01% OprD/3.9x and 5.6x ↑ABM and XYM, read-out: MIC) of the same compound?
**A.** ≥ 256 µg/mL

**Q.** And the MIC ([2]; Pseudomonas aeruginosa, strain Paeβ-21, 200-fold ↑ PDC-4/10% OprD/13.5x ↑XYM, read-out: MIC)?
**A.** 64 µg/mL

**Q.** And the MIC ([2]; Pseudomonas aeruginosa, strain Ps296, VIM-2, read-out: MIC)?
**A.** 64 µg/mL

**Q.** What about the MIC ([3]; strain 134434, AmpC/SHV-12/TEM-1) of the same compound?
**A.** 64 µg/mL

**Q.** What about the MIC ([3]; strain 192476, AmpC/TEM-1/SHV-5) of the same compound?
**A.** 128 µg/mL

**Q.** What about the MIC ([3]; strain 192478, AmpC/SHV-12/TEM-1) of the same compound?
**A.** 128 µg/mL

**Q.** And the MIC ([3]; strain 218073, AmpC/SHV-7/TEM-1)?
**A.** 64 µg/mL

**Q.** What about the MIC [4] of the same compound?
**A.** 8 µg/mL

**Q.** What about the MIC [5] of the same compound?
**A.** 64 µg/mL

**Q.** What about the MIC [6] of the same compound?
**A.** 2 µg/mL
